Test results as given in ChEMBL document CHEMBL5154747, “Discovery of new carbonic anhydrase IX inhibitors as anticancer agents by toning the hydrophobic and hydrophilic rims of the active site to encounter the dual-tail approach” (Eur J Med Chem, 2022).

Legend:
Type in all cases: functional
ACHN = assay: Anticancer activity against human ACHN cells assessed as cell growth inhibition incubated for 48 hrs by SRB assay
HT-29 = assay: Anticancer activity against human HT-29 cells assessed as cell growth inhibition at 10 uM incubated for 48 hrs by SRB assay relative to control; details: read-out: GI
786-0 [1] = assay: Anticancer activity against human 786-0 cells assessed as cell growth inhibition incubated for 48 hrs by SRB assay
NCI-H226 = assay: Anticancer activity against human NCI-H226 cells assessed as cell growth inhibition incubated for 48 hrs by SRB assay
SN12C [2] = assay: Anticancer activity against human SN12C cells assessed as cell growth inhibition at 10 uM incubated for 48 hrs by SRB assay relative to control; details: read-out: GI
786-0 [3] = assay: Anticancer activity against human 786-0 cells assessed as cell growth inhibition at 10 uM incubated for 48 hrs by SRB assay relative to control; details: read-out: GI
SK-MEL-28 [4] = assay: Anticancer activity against human SK-MEL-28 cells assessed as cell growth inhibition incubated for 48 hrs by SRB assay
NCI-H23 = assay: Anticancer activity against human NCI-H23 cells assessed as cell growth inhibition incubated for 48 hrs by SRB assay
SF-539 = assay: Anticancer activity against human SF-539 cells assessed as cell growth inhibition incubated for 48 hrs by SRB assay
EKVX [5] = assay: Anticancer activity against human EKVX cells assessed as cell growth inhibition at 10 uM incubated for 48 hrs by SRB assay relative to control; details: read-out: GI
MOLT-4 = assay: Anticancer activity against human MOLT-4 cells assessed as cell growth inhibition incubated for 48 hrs by SRB assay
BT-549 = assay: Anticancer activity against human BT-549 cells assessed as cell growth inhibition incubated for 48 hrs by SRB assay
TK-10 [6] = assay: Anticancer activity against human TK-10 cells assessed as cell growth inhibition at 10 uM incubated for 48 hrs by SRB assay relative to control; details: read-out: GI
NCI-H322M [7] = assay: Anticancer activity against human NCI-H322M cells assessed as cell growth inhibition at 10 uM incubated for 48 hrs by SRB assay relative to control; details: read-out: GI
Malme-3M = assay: Anticancer activity against human Malme-3M cells assessed as cell growth inhibition at 10 uM incubated for 48 hrs by SRB assay relative to control; details: read-out: GI
SF-295 = assay: Anticancer activity against human SF-295 cells assessed as cell growth inhibition at 10 uM incubated for 48 hrs by SRB assay relative to control; details: read-out: GI
DU-145 = assay: Anticancer activity against human DU-145 cells assessed as cell growth inhibition at 10 uM incubated for 48 hrs by SRB assay relative to control; details: read-out: GI
IGROV-1 [8] = assay: Anticancer activity against human IGROV-1 cells assessed as cell growth inhibition incubated for 48 hrs by SRB assay
UO-31 = assay: Anticancer activity against human UO-31 cells assessed as cell growth inhibition at 10 uM incubated for 48 hrs by SRB assay relative to control; details: read-out: GI
Hs-578T = assay: Anticancer activity against human Hs-578T cells assessed as cell growth inhibition at 10 uM incubated for 48 hrs by SRB assay relative to control; details: read-out: GI
SK-MEL-28 [9] = assay: Anticancer activity against human SK-MEL-28 cells assessed as cell growth inhibition at 10 uM incubated for 48 hrs by SRB assay relative to control; details: read-out: GI
COLO 205 = assay: Anticancer activity against human COLO 205 cells assessed as cell growth inhibition at 10 uM incubated for 48 hrs by SRB assay relative to control; details: read-out: GI
SNB-19 [10] = assay: Anticancer activity against human SNB-19 cells assessed as cell growth inhibition incubated for 48 hrs by SRB assay
SK-OV-3 [11] = assay: Anticancer activity against human SK-OV-3 cells assessed as cell growth inhibition incubated for 48 hrs by SRB assay
OVCAR-8 [12] = assay: Anticancer activity against human OVCAR-8 cells assessed as cell growth inhibition incubated for 48 hrs by SRB assay
NCI-H522 = assay: Anticancer activity against human NCI-H522 cells assessed as cell growth inhibition at 10 uM incubated for 48 hrs by SRB assay relative to control; details: read-out: GI
OVCAR-8 [13] = assay: Anticancer activity against human OVCAR-8 cells assessed as cell growth inhibition at 10 uM incubated for 48 hrs by SRB assay relative to control; details: read-out: GI
MDA-MB-468 = assay: Anticancer activity against human MDA-MB-468 cells assessed as cell growth inhibition incubated for 48 hrs by SRB assay
SK-MEL-5 = assay: Anticancer activity against human SK-MEL-5 cells assessed as cell growth inhibition incubated for 48 hrs by SRB assay
SNB-19 [14] = assay: Anticancer activity against human SNB-19 cells assessed as cell growth inhibition at 10 uM incubated for 48 hrs by SRB assay relative to control; details: read-out: GI
TK-10 [15] = assay: Anticancer activity against human TK-10 cells assessed as cell growth inhibition incubated for 48 hrs by SRB assay
SN12C [16] = assay: Anticancer activity against human SN12C cells assessed as cell growth inhibition incubated for 48 hrs by SRB assay
KM12 = assay: Anticancer activity against human KM12 cells assessed as cell growth inhibition incubated for 48 hrs by SRB assay
UACC-257 = assay: Anticancer activity against human UACC-257 cells assessed as cell growth inhibition incubated for 48 hrs by SRB assay
SK-OV-3 [17] = assay: Anticancer activity against human SK-OV-3 cells assessed as cell growth inhibition at 10 uM incubated for 48 hrs by SRB assay relative to control; details: read-out: GI
RXF 393 = assay: Anticancer activity against human RXF 393 cells assessed as cell growth inhibition at 10 uM incubated for 48 hrs by SRB assay relative to control; details: read-out: GI
NCI-H322M [18] = assay: Anticancer activity against human NCI-H322M cells assessed as cell growth inhibition incubated for 48 hrs by SRB assay
EKVX [19] = assay: Anticancer activity against human EKVX cells assessed as cell growth inhibition incubated for 48 hrs by SRB assay
LOX IMVI = assay: Anticancer activity against human LOX IMVI cells assessed as cell growth inhibition at 10 uM incubated for 48 hrs by SRB assay relative to control; details: read-out: GI
IGROV-1 [20] = assay: Anticancer activity against human IGROV-1 cells assessed as cell growth inhibition at 10 uM incubated for 48 hrs by SRB assay relative to control; details: read-out: GI
[21] = read-out: LC50 (the source's name)

## NS(=O)(=O)c1ccc(Nc2nc(N/N=C/c3ccccn3)nc(Nc3ccccc3)n2)cc1
ACHN
  GI50: 1120 nM
HT-29
  inhibition of growth at 10 µM: 93%
786-0 [1]
  GI50: 1060 nM
786-0 [1]; [21]
  CC50: > 100000 nM
NCI-H226
  GI50: 1070 nM
NCI-H226; [21]
  CC50: > 100000 nM
SN12C [2]
  inhibition of growth at 10 µM: 97%
786-0 [3]
  inhibition of growth at 10 µM: 91%
SK-MEL-28 [4]
  GI50: 750 nM
SK-MEL-28 [4]; [21]
  CC50: 6190 nM
NCI-H23
  GI50: 1210 nM
NCI-H23; [21]
  CC50: 8410 nM
SF-539
  GI50: 680 nM
SF-539; [21]
  CC50: 8000 nM
EKVX [5]
  inhibition of growth at 10 µM: 86%
MOLT-4
  GI50: 430 nM
MOLT-4; [21]
  CC50: > 100000 nM
BT-549
  GI50: 890 nM
BT-549; [21]
  CC50: > 100000 nM
TK-10 [6]
  inhibition of growth at 10 µM: 97%
NCI-H322M [7]
  inhibition of growth at 10 µM: 109%
Malme-3M
  inhibition of growth at 10 µM: 168%
SF-295
  inhibition of growth at 10 µM: 100%
DU-145
  inhibition of growth at 10 µM: 95%
IGROV-1 [8]
  GI50: 790 nM
IGROV-1 [8]; [21]
  CC50: > 100000 nM
UO-31
  inhibition of growth at 10 µM: 82%
Hs-578T
  inhibition of growth at 10 µM: 118%
SK-MEL-28 [9]
  inhibition of growth at 10 µM: 164%
COLO 205
  inhibition of growth at 10 µM: 142%
SNB-19 [10]
  GI50: 850 nM
SNB-19 [10]; [21]
  CC50: > 100000 nM
SK-OV-3 [11]
  GI50: 840 nM
  LC50: > 100000 nM
OVCAR-8 [12]
  GI50: 440 nM
  LC50: > 100000 nM
NCI-H522
  inhibition of growth at 10 µM: 132%
OVCAR-8 [13]
  inhibition of growth at 10 µM: 96%
MDA-MB-468
  GI50: 310 nM
MDA-MB-468; [21]
  CC50: > 100000 nM
SK-MEL-5
  GI50: 780 nM
  LC50: 4710 nM
SNB-19 [14]
  inhibition of growth at 10 µM: 90%
TK-10 [15]
  GI50: 1190 nM
TK-10 [15]; [21]
  CC50: > 100000 nM
SN12C [16]
  GI50: 1010 nM
  LC50: > 100000 nM
KM12
  GI50: 2140 nM
KM12; [21]
  CC50: > 100000 nM
UACC-257
  GI50: 2140 nM
  LC50: > 100000 nM
SK-OV-3 [17]
  inhibition of growth at 10 µM: 131%
RXF 393
  inhibition of growth at 10 µM: 174%
NCI-H322M [18]
  GI50: 400 nM
NCI-H322M [18]; [21]
  CC50: > 100000 nM
EKVX [19]
  GI50: 710 nM
EKVX [19]; [21]
  CC50: > 100000 nM
LOX IMVI
  inhibition of growth at 10 µM: 143%
IGROV-1 [20]
  inhibition of growth at 10 µM: 130%
